Results as given in article PMC9954146, “Anti-Leukaemic Activity of Rilpivirine Is Mediated by Aurora A Kinase Inhibition” (Cancers, 2023).

What was measured:
Test in all cases: Kinase panel
Assay type in all cases: biochemical
CDKL4(h) = target: T1, CDKL4(h) (Homo sapiens, UniProt Q5MAI5); conditions: read-out: % Residual Activity
T1 construct: purchased Eurofins (KinaseProfiler)
How it was run: (§1)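 For each panel kinase, rilpivirine inhibition is measured by radioactive phosphate transfer with ATP at that enzyme's Km, […].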

CLK4(h) = target: T2, CLK4(h) (Homo sapiens, UniProt Q9HAZ1); conditions: read-out: % Residual Activity
T2 construct: purchased Eurofins (KinaseProfiler)
How it was run: as §1

eEF-2K(h) = target: T3, eEF-2K(h) (Homo sapiens, UniProt O00418); conditions: read-out: % Residual Activity
T3 construct: purchased Eurofins (KinaseProfiler)
How it was run: as §1

PAK6(h) = target: T4, PAK6(h) (Homo sapiens, UniProt Q9NQU5); conditions: read-out: % Residual Activity
T4 construct: purchased Eurofins (KinaseProfiler)
How it was run: as §1

STK32B(h) = target: T5, STK32B(h) (Homo sapiens, UniProt Q9NY57); conditions: read-out: % Residual Activity
T5 construct: purchased Eurofins (KinaseProfiler)
How it was run: as §1

TGFBR1(h) = target: T6, TGFBR1(h) (Homo sapiens, UniProt P36897); conditions: read-out: % Residual Activity
T6 construct: purchased Eurofins (KinaseProfiler)
How it was run: as §1

SAPK3(h) = target: T7, SAPK3(h) (Homo sapiens, UniProt P53778); conditions: read-out: % Residual Activity
T7 construct: purchased Eurofins (KinaseProfiler)
How it was run: as §1

IGF-1R(h), activated = target: T8, IGF-1R(h), activated (Homo sapiens, UniProt P08069); conditions: read-out: % Residual Activity
T8 construct: purchased Eurofins (KinaseProfiler)
How it was run: as §1

SIK(h) = target: T9, SIK(h) (Homo sapiens, UniProt P57059); conditions: read-out: % Residual Activity
T9 construct: purchased Eurofins (KinaseProfiler)
How it was run: as §1

NDR2(h) = target: T10, NDR2(h) (Homo sapiens, UniProt Q9Y2H1); conditions: read-out: % Residual Activity
T10 construct: purchased Eurofins (KinaseProfiler)
How it was run: as §1

Rsk4(h) = target: T11, Rsk4(h) (Homo sapiens, UniProt Q9UK32); conditions: read-out: % Residual Activity
T11 construct: purchased Eurofins (KinaseProfiler)
How it was run: as §1

MARK4(h) = target: T12, MARK4(h) (Homo sapiens, UniProt Q96L34); conditions: read-out: % Residual Activity
T12 construct: purchased Eurofins (KinaseProfiler)
How it was run: as §1

ErbB2(h) = target: T13, ErbB2(h) (Homo sapiens, UniProt P04626); conditions: read-out: % Residual Activity
T13 construct: purchased Eurofins (KinaseProfiler)
How it was run: as §1

Pim-1(h) = target: T14, Pim-1(h) (Homo sapiens, UniProt P11309)
T14 construct: purchased Eurofins (KinaseProfiler)
How it was run: as §1

CK2(h) = target: T15, CK2(h) (Homo sapiens, UniProt P68400); conditions: read-out: % Residual Activity
T15 construct: purchased Eurofins (KinaseProfiler)
How it was run: as §1

PhKγ2(h) = target: T16, PhKγ2(h) (Homo sapiens, UniProt P15735); conditions: read-out: % Residual Activity
T16 construct: purchased Eurofins (KinaseProfiler)
How it was run: as §1

SGK(h) = target: T17, SGK(h) (Homo sapiens, UniProt O00141); conditions: read-out: % Residual Activity
T17 construct: purchased Eurofins (KinaseProfiler)
How it was run: as §1

SAPK2a(T106M)(h) = target: T18, SAPK2a(T106M)(h) (Homo sapiens, UniProt Q16539, T106M); conditions: read-out: % Residual Activity
T18 construct: purchased Eurofins (KinaseProfiler)
How it was run: as §1

Flt3(h) = target: T19, Flt3(h) (Homo sapiens, UniProt P36888); conditions: read-out: % Residual Activity
T19 construct: purchased Eurofins (KinaseProfiler)
How it was run: as §1

MST4(h) = target: T20, MST4(h) (Homo sapiens, UniProt Q9P289); conditions: read-out: % Residual Activity
T20 construct: purchased Eurofins (KinaseProfiler)
How it was run: as §1

SLK(h) = target: T21, SLK(h) (Homo sapiens, UniProt Q9H2G2); conditions: read-out: % Residual Activity
T21 construct: purchased Eurofins (KinaseProfiler)
How it was run: as §1

Lyn(m) = target: T22, Lyn(m) (Mus musculus, UniProt P25911); conditions: read-out: % Residual Activity
T22 construct: purchased Eurofins (KinaseProfiler)
How it was run: as §1

CK2α1(h) = target: T23, CK2α1(h) (Homo sapiens, UniProt P68400); conditions: read-out: % Residual Activity
T23 construct: purchased Eurofins (KinaseProfiler)
How it was run: as §1

CRIK(h) = target: T24, CRIK(h) (Homo sapiens, UniProt O14578); conditions: read-out: % Residual Activity
T24 construct: purchased Eurofins (KinaseProfiler)
How it was run: as §1

HIPK1(h) = target: T25, HIPK1(h) (Homo sapiens, UniProt Q86Z02); conditions: read-out: % Residual Activity
T25 construct: purchased Eurofins (KinaseProfiler)
How it was run: as §1

CDK5/p35(h) = target: T26, CDK5/p35(h) (Homo sapiens, UniProt Q00535); conditions: read-out: % Residual Activity
T26 construct: purchased Eurofins (KinaseProfiler)
How it was run: as §1

Abl (M351T)(h) = target: T27, Abl (M351T)(h) (Homo sapiens, UniProt P00519, M351T); conditions: read-out: % Residual Activity
T27 construct: purchased Eurofins (KinaseProfiler)
How it was run: as §1

BrSK2(h) = target: T28, BrSK2(h) (Homo sapiens, UniProt Q8IWQ3); conditions: read-out: % Residual Activity
T28 construct: purchased Eurofins (KinaseProfiler)
How it was run: as §1

CLK1(h) = target: T29, CLK1(h) (Homo sapiens, UniProt P49759); conditions: read-out: % Residual Activity
T29 construct: purchased Eurofins (KinaseProfiler)
How it was run: as §1

DYRK1A(h) = target: T30, DYRK1A(h) (Homo sapiens, UniProt Q13627); conditions: read-out: % Residual Activity
T30 construct: purchased Eurofins (KinaseProfiler)
How it was run: as §1

[1] = target: T31, PI3 Kinase (p110a/p65a)(m) (Mus musculus, UniProt P42337); conditions: read-out: % Residual Activity
T31 construct: purchased Eurofins (KinaseProfiler)
How it was run: as §1

EphB2(h) = target: T32, EphB2(h) (Homo sapiens, UniProt P29323); conditions: read-out: % Residual Activity
T32 construct: purchased Eurofins (KinaseProfiler)
How it was run: as §1

PDHK4(h) = target: T33, PDHK4(h) (Homo sapiens, UniProt Q16654); conditions: read-out: % Residual Activity
T33 construct: purchased Eurofins (KinaseProfiler)
How it was run: as §1

VRK2(h) = target: T34, VRK2(h) (Homo sapiens, UniProt Q86Y07); conditions: read-out: % Residual Activity
T34 construct: purchased Eurofins (KinaseProfiler)
How it was run: as §1

Abl (H396P) (h) = target: T35, Abl (H396P) (h) (Homo sapiens, UniProt P00519, H396P); conditions: read-out: % Residual Activity
T35 construct: purchased Eurofins (KinaseProfiler)
How it was run: as §1

CK1δ(h) = target: T36, CK1δ(h) (Homo sapiens, UniProt P48730); conditions: read-out: % Residual Activity
T36 construct: purchased Eurofins (KinaseProfiler)
How it was run: as §1

IKKε(h) = target: T37, IKKε(h) (Homo sapiens, UniProt Q14164); conditions: read-out: % Residual Activity
T37 construct: purchased Eurofins (KinaseProfiler)
How it was run: as §1

JAK3(h) = target: T38, JAK3(h) (Homo sapiens, UniProt P52333); conditions: read-out: % Residual Activity
T38 construct: purchased Eurofins (KinaseProfiler)
How it was run: as §1

T14 sequence (P11309 whole entry): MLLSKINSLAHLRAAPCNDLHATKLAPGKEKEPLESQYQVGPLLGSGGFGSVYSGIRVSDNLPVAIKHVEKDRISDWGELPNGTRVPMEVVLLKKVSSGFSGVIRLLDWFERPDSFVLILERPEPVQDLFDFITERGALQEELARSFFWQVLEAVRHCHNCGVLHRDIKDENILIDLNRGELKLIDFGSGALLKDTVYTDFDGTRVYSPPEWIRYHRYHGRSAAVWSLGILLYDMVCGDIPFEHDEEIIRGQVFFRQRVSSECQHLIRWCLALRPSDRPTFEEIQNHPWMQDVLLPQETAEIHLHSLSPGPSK
T34 sequence (Q86Y07 whole entry): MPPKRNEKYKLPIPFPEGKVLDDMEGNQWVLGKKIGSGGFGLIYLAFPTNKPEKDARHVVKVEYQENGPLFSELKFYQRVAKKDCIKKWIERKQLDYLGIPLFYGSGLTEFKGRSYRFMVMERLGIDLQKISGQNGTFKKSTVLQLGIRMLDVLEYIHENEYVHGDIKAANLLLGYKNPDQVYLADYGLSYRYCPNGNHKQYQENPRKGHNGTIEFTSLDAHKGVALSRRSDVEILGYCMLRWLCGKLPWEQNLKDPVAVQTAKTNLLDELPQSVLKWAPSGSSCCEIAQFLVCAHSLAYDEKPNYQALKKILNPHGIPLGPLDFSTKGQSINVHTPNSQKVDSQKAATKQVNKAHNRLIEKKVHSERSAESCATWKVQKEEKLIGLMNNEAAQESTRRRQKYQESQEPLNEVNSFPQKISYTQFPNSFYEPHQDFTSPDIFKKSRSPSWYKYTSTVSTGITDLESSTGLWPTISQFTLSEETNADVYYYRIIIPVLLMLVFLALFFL
T11 sequence (Q9UK32 whole entry): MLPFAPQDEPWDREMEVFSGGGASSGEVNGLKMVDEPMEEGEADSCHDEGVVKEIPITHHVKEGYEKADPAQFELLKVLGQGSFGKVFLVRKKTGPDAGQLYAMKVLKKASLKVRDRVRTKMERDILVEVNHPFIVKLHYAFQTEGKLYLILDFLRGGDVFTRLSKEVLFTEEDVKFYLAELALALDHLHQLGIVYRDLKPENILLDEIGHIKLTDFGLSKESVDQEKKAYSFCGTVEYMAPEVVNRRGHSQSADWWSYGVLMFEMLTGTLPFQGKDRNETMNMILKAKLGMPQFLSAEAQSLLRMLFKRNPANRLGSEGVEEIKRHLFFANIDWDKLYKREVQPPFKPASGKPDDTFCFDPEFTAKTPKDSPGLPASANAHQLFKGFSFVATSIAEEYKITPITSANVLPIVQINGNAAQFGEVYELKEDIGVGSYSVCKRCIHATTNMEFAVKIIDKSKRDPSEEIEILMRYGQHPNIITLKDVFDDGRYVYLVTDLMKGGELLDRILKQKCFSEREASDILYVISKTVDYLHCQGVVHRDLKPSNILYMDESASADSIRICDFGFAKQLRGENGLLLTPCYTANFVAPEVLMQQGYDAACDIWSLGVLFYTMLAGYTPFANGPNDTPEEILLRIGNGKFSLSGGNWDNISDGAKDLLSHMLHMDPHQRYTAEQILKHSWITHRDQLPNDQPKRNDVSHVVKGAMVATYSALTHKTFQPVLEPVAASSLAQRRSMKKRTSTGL
T25 sequence (Q86Z02 whole entry): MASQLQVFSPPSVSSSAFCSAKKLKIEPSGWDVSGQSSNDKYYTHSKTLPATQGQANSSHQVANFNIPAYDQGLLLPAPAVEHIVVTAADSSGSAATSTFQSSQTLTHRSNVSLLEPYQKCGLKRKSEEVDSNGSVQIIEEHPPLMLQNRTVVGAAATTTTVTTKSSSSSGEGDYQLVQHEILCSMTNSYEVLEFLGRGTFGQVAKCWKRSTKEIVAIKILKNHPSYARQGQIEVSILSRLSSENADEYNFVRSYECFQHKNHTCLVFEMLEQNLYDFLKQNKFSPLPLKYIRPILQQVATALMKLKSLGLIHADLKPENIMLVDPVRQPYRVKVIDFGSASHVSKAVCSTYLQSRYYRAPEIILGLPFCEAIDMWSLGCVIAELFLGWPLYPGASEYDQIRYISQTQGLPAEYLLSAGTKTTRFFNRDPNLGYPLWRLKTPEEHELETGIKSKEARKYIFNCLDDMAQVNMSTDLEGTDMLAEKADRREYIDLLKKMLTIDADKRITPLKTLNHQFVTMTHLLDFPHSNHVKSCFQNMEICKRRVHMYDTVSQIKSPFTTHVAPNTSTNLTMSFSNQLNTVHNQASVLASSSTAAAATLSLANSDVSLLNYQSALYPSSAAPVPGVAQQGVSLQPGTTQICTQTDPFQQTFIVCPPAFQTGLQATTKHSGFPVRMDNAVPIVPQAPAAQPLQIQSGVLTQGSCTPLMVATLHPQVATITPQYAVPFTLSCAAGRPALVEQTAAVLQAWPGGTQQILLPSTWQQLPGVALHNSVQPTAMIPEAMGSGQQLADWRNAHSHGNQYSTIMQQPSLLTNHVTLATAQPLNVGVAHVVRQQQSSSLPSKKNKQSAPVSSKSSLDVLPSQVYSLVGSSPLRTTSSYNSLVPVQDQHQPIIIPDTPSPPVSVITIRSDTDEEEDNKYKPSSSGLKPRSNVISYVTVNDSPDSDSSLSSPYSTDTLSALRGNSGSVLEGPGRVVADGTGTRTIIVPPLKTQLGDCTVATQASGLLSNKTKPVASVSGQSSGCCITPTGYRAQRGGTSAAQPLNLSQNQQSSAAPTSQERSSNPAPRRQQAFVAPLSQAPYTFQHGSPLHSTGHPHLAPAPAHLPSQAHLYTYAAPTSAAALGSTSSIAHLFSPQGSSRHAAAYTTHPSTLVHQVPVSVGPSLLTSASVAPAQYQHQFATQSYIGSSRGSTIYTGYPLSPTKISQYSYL
T19 sequence (P36888 27-993): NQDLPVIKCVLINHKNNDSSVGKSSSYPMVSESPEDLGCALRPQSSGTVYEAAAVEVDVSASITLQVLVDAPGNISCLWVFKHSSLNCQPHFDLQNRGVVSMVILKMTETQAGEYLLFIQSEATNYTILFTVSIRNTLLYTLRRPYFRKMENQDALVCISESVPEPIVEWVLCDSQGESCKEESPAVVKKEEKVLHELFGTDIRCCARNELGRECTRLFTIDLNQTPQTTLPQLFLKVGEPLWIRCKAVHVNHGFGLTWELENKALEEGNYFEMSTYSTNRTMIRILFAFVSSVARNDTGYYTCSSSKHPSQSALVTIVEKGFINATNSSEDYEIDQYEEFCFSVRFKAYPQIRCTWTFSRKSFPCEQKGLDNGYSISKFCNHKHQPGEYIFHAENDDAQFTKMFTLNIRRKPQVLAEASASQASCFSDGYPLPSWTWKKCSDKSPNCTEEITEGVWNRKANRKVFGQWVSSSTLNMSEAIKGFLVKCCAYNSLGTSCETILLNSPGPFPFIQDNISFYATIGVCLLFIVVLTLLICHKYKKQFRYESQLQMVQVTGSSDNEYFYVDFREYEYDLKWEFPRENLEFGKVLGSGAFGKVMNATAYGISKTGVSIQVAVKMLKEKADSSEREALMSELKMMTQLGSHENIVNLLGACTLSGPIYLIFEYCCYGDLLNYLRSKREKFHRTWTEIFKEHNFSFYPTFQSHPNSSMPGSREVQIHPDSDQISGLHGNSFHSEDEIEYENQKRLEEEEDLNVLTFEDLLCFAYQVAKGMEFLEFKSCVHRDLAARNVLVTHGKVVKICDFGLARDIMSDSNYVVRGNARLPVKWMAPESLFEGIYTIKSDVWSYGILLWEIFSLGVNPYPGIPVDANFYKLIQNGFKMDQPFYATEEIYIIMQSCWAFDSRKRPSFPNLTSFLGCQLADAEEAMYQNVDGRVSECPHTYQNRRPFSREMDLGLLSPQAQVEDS
T33 sequence (Q16654 whole entry): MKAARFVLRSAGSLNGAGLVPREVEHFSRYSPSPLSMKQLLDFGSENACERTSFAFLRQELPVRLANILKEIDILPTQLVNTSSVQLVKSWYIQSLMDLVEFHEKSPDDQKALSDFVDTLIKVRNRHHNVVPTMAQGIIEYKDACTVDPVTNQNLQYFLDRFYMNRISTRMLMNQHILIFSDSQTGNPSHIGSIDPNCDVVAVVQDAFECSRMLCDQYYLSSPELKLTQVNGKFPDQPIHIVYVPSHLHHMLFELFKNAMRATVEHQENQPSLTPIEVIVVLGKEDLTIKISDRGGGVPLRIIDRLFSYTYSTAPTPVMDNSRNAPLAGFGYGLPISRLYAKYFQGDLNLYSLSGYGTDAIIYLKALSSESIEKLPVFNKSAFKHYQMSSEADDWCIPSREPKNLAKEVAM
T7 sequence (P53778 whole entry): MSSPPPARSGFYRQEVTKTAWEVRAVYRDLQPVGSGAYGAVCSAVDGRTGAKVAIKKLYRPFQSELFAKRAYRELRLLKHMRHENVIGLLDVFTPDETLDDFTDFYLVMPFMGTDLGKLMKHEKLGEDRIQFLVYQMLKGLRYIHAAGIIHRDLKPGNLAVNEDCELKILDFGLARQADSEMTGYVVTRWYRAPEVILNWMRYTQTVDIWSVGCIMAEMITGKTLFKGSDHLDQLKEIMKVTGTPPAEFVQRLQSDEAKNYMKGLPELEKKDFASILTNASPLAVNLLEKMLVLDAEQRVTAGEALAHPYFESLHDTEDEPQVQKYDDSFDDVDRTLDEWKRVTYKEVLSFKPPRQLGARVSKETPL
T6 sequence (P36897 34-503): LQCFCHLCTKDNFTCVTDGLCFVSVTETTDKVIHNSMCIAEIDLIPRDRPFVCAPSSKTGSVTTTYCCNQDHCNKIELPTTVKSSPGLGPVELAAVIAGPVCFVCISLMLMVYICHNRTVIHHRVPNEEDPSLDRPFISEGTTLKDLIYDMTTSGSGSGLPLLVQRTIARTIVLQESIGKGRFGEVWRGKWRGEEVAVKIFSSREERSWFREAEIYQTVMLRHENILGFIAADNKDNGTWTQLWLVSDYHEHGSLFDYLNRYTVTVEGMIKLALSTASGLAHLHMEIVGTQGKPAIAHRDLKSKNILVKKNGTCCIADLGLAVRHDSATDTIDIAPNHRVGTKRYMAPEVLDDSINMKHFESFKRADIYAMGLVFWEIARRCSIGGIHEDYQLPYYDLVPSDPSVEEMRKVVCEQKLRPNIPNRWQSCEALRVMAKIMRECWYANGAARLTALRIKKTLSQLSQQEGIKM

Which results are given for `Cc1cc(/C=C/C#N)cc(C)c1Nc1ccnc(Nc2ccc(C#N)cc2)n1` [rilpivirine, (E)-4-((4-((4-(2-cyanoethenyl)-2,6-dimethylphenyl)amino)pyrimidin-2-yl)amino)benzonitrile]?
remaining activity at 1 µM (CDKL4(h)): 74%; remaining activity at 1 µM (CLK4(h)): 37%; remaining activity at 1 µM (eEF-2K(h)): 92%; remaining activity at 1 µM (PAK6(h)): 117%; remaining activity at 1 µM (STK32B(h)): 99%; remaining activity at 1 µM (TGFBR1(h)): 103%; remaining activity at 1 µM (SAPK3(h)): 106%; remaining activity at 1 µM (IGF-1R(h), activated): 99%; remaining activity at 1 µM (SIK(h)): 66%; remaining activity at 1 µM (NDR2(h)): 100%; remaining activity at 1 µM (Rsk4(h)): 99%; remaining activity at 1 µM (MARK4(h)): 88%; remaining activity at 1 µM (ErbB2(h)): 116%; remaining activity at 1 µM (Pim-1(h); 1 μM, read-out: % Residual Activity): 22%; inhibition at 1 µM (Pim-1(h); PIM1, 1 μM, read-out: inhibitory activity): > 70%; remaining activity at 1 µM (CK2(h)): 90%; remaining activity at 1 µM (PhKγ2(h)): 83%; remaining activity at 1 µM (SGK(h)): 97%; remaining activity at 1 µM (SAPK2a(T106M)(h)): 90%; remaining activity at 1 µM (Flt3(h)): 123%; remaining activity at 1 µM (MST4(h)): 91%; remaining activity at 1 µM (SLK(h)): 106%; remaining activity at 1 µM (Lyn(m)): 25%; remaining activity at 1 µM (CK2α1(h)): 101%; remaining activity at 1 µM (CRIK(h)): 107%; remaining activity at 1 µM (HIPK1(h)): 97%; remaining activity at 1 µM (CDK5/p35(h)): 97%; remaining activity at 1 µM (Abl (M351T)(h)): 74%; remaining activity at 1 µM (BrSK2(h)): 80%; remaining activity at 1 µM (CLK1(h)): 48%; remaining activity at 1 µM (DYRK1A(h)): 56%; remaining activity at 1 µM [1]: 104%; remaining activity at 1 µM (EphB2(h)): 78%; remaining activity at 1 µM (PDHK4(h)): 94%; remaining activity at 1 µM (VRK2(h)): 88%; remaining activity at 1 µM (Abl (H396P) (h)): 71%; remaining activity at 1 µM (CK1δ(h)): 99%; remaining activity at 1 µM (IKKε(h)): 82%; remaining activity at 1 µM (JAK3(h)): 68%
